Experiments:
NIH-3T3 cells [1] = assay: Live cell confocal imaging; type: cell-based, mouse; details: NIH-3T3, 2.5 μM, 6 h; for Nuclear cathepsin labeling (confocal Z-stack, costaining with Hoechst): 63× objective; for Probe staining intensity in live cells: fluorescence microscopy
Procedure: (§1) NIH-3T3 or HeLa cells were seeded in an 8-well coverslip chamber (Lab-Tek) at a density of 100,000 cells per well and grown at 37 °C under 5% of CO2, 24 h later, cells were treated with 2.5 μM KRSs probes for 6 h. The medium was replaced with DMEM without phenol red, and Hoechst was added to a final concentration of 5 μg/mL. Live imaging of cells using a Zeiss LSM 710 Axio Observer.Z1 with a 63/24 Oil DIC M27 lens, in Cy3 and DAPI channels, was performed over 24 h; pictures were taken every 20–25 min. The Z-stack analysis was performed using 3–5 different depths focusing on the cell nucleus; each slice was 1–1.5 μm. Image processing was performed using NIS-Elements image acquisition software, quantifying the 63× images of several experiments and calculating the average fluorescence intensity. Statistics and standard deviation were calculated by using Microsoft Excel.

[2] = Quenching efficiency (fluorescent plate reader); type: physicochemical; details: lower fluorescence than average of nonquenched probes; slope ratio; 0.013–10 μM in acetate buffer pH 5.5; Ex./Em. 535/570 nm
Procedure: Increasing concentrations (0.013–10 μM) of KRS (A1-F1), in acetate buffer (50 mM acetate, 5 mM MgCl2, 2 mM DTT, pH 5.5), were prepared in a 96-well plate. Fluorescence was measured and quantified using a BioRad plate reader, Ex./Em. 535/570 nm. Arbitrary fluorescent units were plotted versus probe concentration, and the ratio between the slope of each quenched probe and the average of the nonquenched probes were determined as quenching efficiency.

[3] = target: Recombinant human cathepsin S (Homo sapiens, UniProt P25774); assay: Recombinant cathepsin labeling, fluorescent SDS-PAGE; type: binding; details: pH 5.5, 37 °C, probe intensities compared with KRS-D1(qAc), GB111-NH2 given as pretreatment before KRS probes
Recombinant human cathepsin S, sequence (P25774 115-331): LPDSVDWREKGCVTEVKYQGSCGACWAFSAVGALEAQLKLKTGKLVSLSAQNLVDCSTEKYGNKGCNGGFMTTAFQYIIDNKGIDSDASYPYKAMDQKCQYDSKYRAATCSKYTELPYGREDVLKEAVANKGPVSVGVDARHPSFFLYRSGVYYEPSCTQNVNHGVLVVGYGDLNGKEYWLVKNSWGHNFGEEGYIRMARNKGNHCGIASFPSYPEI
Procedure: (§2) Recombinant human cathepsins B (0.7 μg), L (0.6 μg), or S (0.7 μg) in reaction buffer (50 mM acetate, 5 mM MgCl2, 2 mM DTT, pH 5.5) was pretreated with the cathepsin inhibitor GB111-NH2 or vehicle for 30 min at room temp. Indicated concentrations of KRS probes were added to the samples for 30 min at 37 °C. The reaction was stopped by adding 4× sample buffer (40% glycerol, 0.2 M Tris/HCl 6.8, 20% β-mercaptoethanol, 12% SDS, and 0.4 mg/mL bromophenol blue). The samples were boiled and separated by a 12% SDS gel and scanned by a Typhoon laser scanner at Ex./Em. 535/570 nm for fluorescence.

[4] = target: Recombinant human cathepsin B (Homo sapiens, UniProt P07858); assay: as above; type: binding; details: pH 5.5, 37 °C, probe intensities compared with KRS-D1(qAc), GB111-NH2 given as pretreatment before KRS probes
Procedure: as §2

[5] = target: Recombinant human cathepsin L (Homo sapiens, UniProt P07711); assay: as above; type: binding; details: pH 5.5, 37 °C, probe intensities compared with KRS-D1(qAc), GB111-NH2 given as pretreatment before KRS probes
Recombinant human cathepsin L, sequence (P07711 114-333): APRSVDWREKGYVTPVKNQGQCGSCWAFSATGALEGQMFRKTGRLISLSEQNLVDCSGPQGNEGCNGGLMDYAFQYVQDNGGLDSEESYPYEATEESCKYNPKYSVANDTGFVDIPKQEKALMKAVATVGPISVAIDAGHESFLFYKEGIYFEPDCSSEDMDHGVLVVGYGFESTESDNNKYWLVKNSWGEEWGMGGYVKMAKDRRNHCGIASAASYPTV
Procedure: as §2

HeLa cells [6] = assay: Live cell confocal imaging and time-lapse movies; type: cell-based, human
Procedure: as §1

NIH-3T3 cells [7] = type: cell-based, mouse
Procedure: (§3) NIH-3T3 cells (2.5 × 10^5 cells/well) or HeLa cells (2.0 × 10^5 cells/well) were seeded in a 12-well plate 1 day before treatment. Cells were incubated with KRS probes at 2.5 μM predissolved in 0.1% DMSO and 0.9% ethanol in a culture medium for indicated durations. After the incubation, cells were washed with PBS and lysed by the addition of sample buffer. Samples were analyzed by fluorescent SDS-PAGE as described above.

HeLa cells [8] = assay: Image Streamer flow imaging, fixed cells; type: cell-based, human; details: 6 h, Draq5 stain
Procedure: Live or methanol fixed cells were pretreated with KRS probes at 2.5 μM for 6 h predissolved in 0.1% DMSO and 0.9% ethanol in a culture medium. After the incubation, cells were washed with PBS centrifuged and dissolved in PBS in a final volume of 50 μL. The DNA markers: Hoechst (Thermo Fisher) at a final concentration of 1 μg/mL or Draq5 (Thermo Fisher) at a final concentration of 1.5 μM were added. The samples were analyzed using an Image StreamX Flow Imager system (Merk Millipore).

[9] = target: T1, intracellular cathepsin L in NIH-3T3 cells (Mus musculus, UniProt P06797); assay: Probe labeling in intact cells, fluorescent SDS-PAGE; type: cell-based; details: live NIH-3T3, 6 h probe incubation, band intensity; in comparison to probes without the CPP
T1 construct: KRS probes freely penetrated the cells and labeled endogenous cathepsins in a dose-dependent manner; endogenous in cells; host or cells: NIH-3T3
T1 sequence (P06797 114-334): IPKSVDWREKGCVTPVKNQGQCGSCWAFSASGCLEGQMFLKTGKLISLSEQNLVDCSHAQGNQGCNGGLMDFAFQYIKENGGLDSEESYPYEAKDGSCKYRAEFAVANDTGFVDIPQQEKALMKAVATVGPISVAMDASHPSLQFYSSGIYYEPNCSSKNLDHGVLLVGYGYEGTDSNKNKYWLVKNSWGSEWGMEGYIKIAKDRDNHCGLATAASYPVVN
Procedure: (§4) NIH-3T3 cells (2.5 × 10^5 cells/well) were seeded in a 12-well plate 1 day prior to treatment. Cells were pretreated with inhibitor GB111-NH2 or vehicle for 30 min followed by incubation with KRS probes at indicated concentrations predissolved in 0.1% DMSO and 0.9% ethanol in a culture medium. After 6 h of probe incubation cells were washed with PBS and lysed by addition of sample buffer as described above. Lysates were boiled for 5 min, centrifuged, and separated by 12.5% SDS-PAGE. Cathepsins labeled in cells were visualized by scanning the gel with a Typhoon laser scanner at Ex./Em. 535/570 nm.

HeLa cells [10] = type: cell-based, human
Procedure: as §3

[11] = target: T2, intracellular cathepsin B in NIH-3T3 cells (Mus musculus, UniProt P10605); type: cell-based; details: for Labeling of intracellular cathepsin B: live NIH-3T3, 6 h probe incubation, band intensity, in comparison to probes without the CPP
T2 construct: KRS probes freely penetrated the cells and labeled endogenous cathepsins in a dose-dependent manner; endogenous in cells; host or cells: NIH-3T3
T2 sequence (P10605 80-333 limits assumed): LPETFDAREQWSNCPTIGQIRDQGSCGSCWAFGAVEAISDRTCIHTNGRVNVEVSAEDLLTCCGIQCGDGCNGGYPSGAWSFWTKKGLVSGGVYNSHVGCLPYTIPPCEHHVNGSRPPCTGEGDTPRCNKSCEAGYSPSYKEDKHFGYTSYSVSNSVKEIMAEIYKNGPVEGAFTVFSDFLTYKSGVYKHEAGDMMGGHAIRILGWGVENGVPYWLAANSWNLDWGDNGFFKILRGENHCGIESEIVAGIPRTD
Procedure: as §4

HeLa cells [12] = assay: Subcellular fractionation with fluorescent SDS-PAGE; type: cell-based, human; details: 2.5 μM, 6 h; for Active cathepsin in nuclear fraction: 20 μg protein per fraction
Procedure: Cell fractionation was performed according to the manufacturer’s instructions using the Subcellular Protein Fractionation Kit for Cultured Cells (Pierce, Thermo Fisher Scientific Inc., Rockford, IL, USA, number 78840). Lysed cells were separated into subsequent cytosol, membrane, and nuclear fractions. Extracted proteins were subjected to SDS PAGE separation and fluorescence and Western blot analysis.

Compound | Nuclear cathepsin labeling (confocal Z-stack, costaining with Hoechst) (NIH-3T3 cells [1]) | Probe staining intensity in live cells (NIH-3T3 cells [1]) | Fold quenching (quenching efficiency) [2] | Fluorescence labeling of recombinant cathepsin S [3] | Fluorescence labeling of recombinant cathepsin B [4] | Fluorescence labeling of recombinant cathepsin L [5] | Labeling of intracellular cathepsin L [9] | Labeling of intracellular cathepsin B [11] | also measured
Ac-Cys-Phe-Phe-Lys-(TMR-X)-AOMK-QSY7 [KRS-D1(qAc)] | did not detect cathepsins in the nucleus | relatively weak staining | 61 fold | – | – | – | – | – | –
Cc1cccc(C)c1C(=O)OCC(=O)[C@H](CCCCN)NC(=O)[C@H](Cc1ccccc1)NC(=O)OCc1ccccc1 [GB111-NH2, reference compound] | – | – | – | dramatically reduced | dramatically reduced | dramatically reduced | – | – | Fluorescent signal of KRS probes after inhibitor pretreatment (HeLa cells [6]; live HeLa, 2.5 μM GB111-NH2 pretreatment, then KRS-B1(qTAT) or KRS-E1(qNLS) 6 h): strongly reduced
Ac-Cys-Phe-Phe-Lys-(TMR-X)-AOMK-Ac [KRS-C1(Ac)] | – | relatively weak staining | – | – | – | – | – | – | –
NLS-Cys-Phe-Phe-Lys-(TMR-X)-AOMK-Ac [KRS-F1(NLS)] | – | intense staining | – | – | – | – | – | – | –
TAT-Cys-Phe-Phe-Lys-(TMR-X)-AOMK-QSY7 [KRS-B1(qTAT)] | label nuclear cathepsins | intense staining | 66 fold | slightly lower | slightly lower | slightly lower | enhanced labeling | enhanced labeling | Permeability in time-course labeling (NIH-3T3 cells [7]): enhanced and accelerated permeability; Nuclear cathepsin activity (TMR-X and Draq5 similarity) (HeLa cells [8]): much higher degree; Permeability in time-course labeling (HeLa cells [10]): enhanced and accelerated permeability; Cell permeability / cell penetration [11]: significantly greater cell penetration; Effect on entry of cells to mitosis (HeLa cells [6]; HeLa, 2.5 μM, time-lapse over 22 h): inhibited the entry of cells to mitosis; Active cathepsin in nuclear fraction (HeLa cells [12]): clear presence of active nuclear cathepsin
NLS-Cys-Phe-Phe-Lys-(TMR-X)-AOMK-QSY7 [KRS-E1(qNLS)] | label nuclear cathepsins | intense staining | 54 fold | slightly lower | slightly lower | slightly lower | enhanced labeling | enhanced labeling | Cell permeability / cell penetration [11]: significantly greater cell penetration; Intensity in fractions relative to KRS-B1(qTAT) (HeLa cells [12]): weaker intensity; Active cathepsin in nuclear fraction (HeLa cells [12]): clear presence of active nuclear cathepsin
TAT-Cys-Phe-Phe-Lys-(TMR-X)-AOMK-Ac [KRS-A1(TAT)] | – | intense staining | – | – | – | – | enhanced labeling | enhanced labeling | Permeability in time-course labeling (NIH-3T3 cells [7]): enhanced and accelerated permeability; Permeability in time-course labeling (HeLa cells [10]): enhanced and accelerated permeability; Binding relative to the other probes ([11]; as seen in Figures 2 and 6a): strongest binding of all probes
